# In patent US10329316B2, “Phenylpropanoid compound and preparation method and use thereof” (QIANJIN PHARMACEUTICAL CO., LTD., priority 2016, dated 2019):
# “Also recorded” adds a separate entry of the source.
# Columns and labels:
# [1] = test system: Raw 264.7 cells; experiment: Determination of cell vitality by MTT method; format: cell-based, mouse; conditions: 1.37 to 12.37 μg/ml, 2 h medicine, then LPS 30 μg/ml 24 h, FIG. 1
# Procedure: (§1) Medicine was first dissolved in a small amount of DMSO, and then diluted to a certain concentration with DMEM, so that final concentration of DMSO was less than 1%.
# (§2) Raw 264.7 mouse macrophages were incubated in DMEM medium containing 10% heat-inactivated fetal bovine serum (FBS), 10 U/mL penicillin sodium and 100 μg/ml streptomycin, and incubated in 37° C., 5% CO2 incubator.
# Cell vitality was determined by MTT method. Cell suspension liquid was inoculated into a 96-well plate (1*104 holes/pore) to incubate for 24 hours and then synchronize for 24 hours. The cells were treated with different concentration of medicine for 2 hours, and then stimulated by LPS (30 μg/ml) for 24 hours. Original medium was abandoned, and MTT (0.5 mg/ml) was added into each hole for 4 hours. The medium was then abandoned and DMSO ([…]) was added into each hole. Absorbance was measured at 490 nm after shaking for 10 min.
# [2] = test system: NO; experiment: Determination of NO concentration in LPS-stimulated Raw 264.7 cells (mouse NO kit); format: cell-based; conditions: 6.88±12.38 μg/ml (6.88 to 12.38 μg/mL), LPS 30 μg/ml 24 h, dose-dependent
# Procedure: as §1, §2
# (§3) Raw 264.7 cells were inoculated on a 96-well plate for 24 hours, then synchronized for 24 hours. The cells were treated with different concentration of medicine for 2 hours, and then stimulated with LPS (30 μg/ml) for 24 hours. Lastly, supernatant was collected and centrifuged for 5 minutes at 10,000 rpm. The supernatant was separated and stored at −80° C. for reserve. The concentration of NO was determined by mouse NO kit.
# [3] = test system: TNF-α; experiment: Measurement of inflammatory factor TNF-α in LPS-stimulated Raw 264.7 cells (ELISA kit); format: cell-based, mouse; conditions: 6.88±12.38 μg/ml (6.88 to 12.38 μg/mL), LPS 30 μg/ml 24 h, p<0.05, dose-dependent, FIG. 3
# Procedure: (§4) Mouse IL-1-beta ELISA kit, batch number: 2014/06 (96T), Mouse IL-6 ELISA kit, batch number: 2014/06 (96T), Mouse tumor necrosis factor-alpha (TNF-α) ELISA kit, batch number: 2014/06 (96T), Mouse NO ELISA Kit Batch number: 2014/10 (96T), mouse hydroxyl radical (OH) ELISA detection kit, batch number: 2014/10 (96T).
# as §3
# (§5) Sample prepared in at 1.5 was used for subsequent inflammatory factor determination. The amount of TNF-α, IL-1β, IL-6 produced by cells was measured by mouse TNF-α, IL-1β, and IL-6 kit.
# [4] = test system: IL-1β; experiment: Measurement of inflammatory factor IL-1β in LPS-stimulated Raw 264.7 cells (ELISA kit); format: cell-based, mouse; conditions: at various concentrations; LPS 30 μg/ml 24 h; p>0.05; FIG. 4
# Procedure: as §4, §3, §5
# [5] = test system: IL-6; experiment: Measurement of inflammatory factor IL-6 in LPS-stimulated Raw 264.7 cells (ELISA kit); format: cell-based, mouse; conditions: at various concentrations; LPS 30 μg/ml 24 h; p>0.05; FIG. 5
# Procedure: as §4, §3, §5
# [6] = test system: hydroxyl radical (OH); experiment: Determination of OH concentration in LPS-stimulated Raw 264.7 cells (OH kit); format: cell-based, mouse; conditions: 4.13-12.38 μg/ml, LPS 30 μg/ml 24 h, dose-dependent
# Procedure: as §4, §3
# Sample prepared at 1.5 was used for OH factor determination. The concentration was determined by OH kit.
smiles,measurement,setting,value
O=C(CCO)Oc1cc(O)c(OC2OC(CO)C(O)C(O)C2O)c(O)c1 (stereo not drawn) [MM-125],effect on vitality of Raw 264.7 cells,[1],no significant effect
same,inhibition of the increase of NO concentration induced by LPS,[2]; FIG. 2,significantly inhibit; also recorded: significant inhibitory effects
same,inhibition of the increase of NO concentration induced by LPS,"[2]; FIG. 2, listed as phenylpropanoid compound",significant effect on inhibiting
same,inhibition of production of TNF-α in Raw 264.7 cells,[3],significantly inhibit; also recorded: certain level of inhibiting effects
same,inhibition of production of TNF-α in Raw 264.7 cells,[3]; listed as phenylpropanoid compound,significantly inhibit
same,inhibition of production of IL-1β in Raw 264.7 cells,[4],could not inhibit; also recorded: no obvious inhibitory effect
same,inhibition of production of IL-6 in Raw 264.7 cells,[5],could not inhibit; also recorded: no obvious inhibitory effect
same,inhibition of the increase of OH concentration induced by LPS,[6]; FIG. 6,significantly inhibit; also recorded: significant inhibitory effects
same,inhibition of the increase of OH concentration induced by LPS,"[6]; FIG. 6, listed as phenylpropanoid compound",significant effect on inhibiting
